Laboratory results taken from patent US20040063649A1, “Azithromycin combination for emesis control in mammals” (Pfizer Inc, priority 1999, published 2004).

How the values were obtained:
[1] = test system: azithromycin-induced emesis in azithromycin-sensitive English pointers; experiment: Control of azithromycin-induced emesis in an azithromycin-sensitive dog population; type: in vivo
Procedure: (§1) The ability of various compounds to control azithromycin-induced emesis in dogs was measured in 13 studies using two groups of dogs. The majority of the studies were conducted using a family (dam and offspring) of 12 azithromycin-sensitive English pointers, bred and maintained by Young Veterinary Research Services of Turlock, Calif. The remaining studies were conducted using random source dogs maintained at the Pfizer Animal Health Research facility in Terre Haute, Ind. In all studies, azithromycin was administered in immediate release formulations at a dose of 10 mg/kg.
Initially, four commercialized antiemetic products and CP122,721 were screened individually in the azithromycin-sensitive population with a minimum 7 day washout period between antiemetic tests. Antiemetics were administered orally about 15 to 30 minutes prior to oral treatment with 10 mg/kg azithromycin in an immediate release tablet. […] Other antiemetics reduced the incidence of emesis by only about 10 to 42%.
(§2) Four studies were conducted to titrate the dose of CP122,721 for maximum antiemetic activity with and without a delay between oral antiemetic and oral azithromycin dosing. […] While these studies were in progress, random source dogs (8 per-treatment) were administered 0, 1.5 or 3 mg/kg CP122,721 simultaneously with 10 mg/kg azithromycin. […] In the fourth study, the sensitive pointers received either 3 or 4 mg/kg CP122,721 simultaneously with azithromycin. The incidence of emesis was equivalent with one dog in each treatment group vomiting.

emesis in ferrets = settings: vomiting caused by intragastric copper sulfate and ipecac syrup, subcutaneous loperamide, intraperitoneal cisplatin; cited from earlier work
[2] = test system: azithromycin-induced emesis in random source dogs; experiment: Control of azithromycin-induced emesis in random source dogs; type: in vivo, dog; settings: for Emetic Dogs/Total Dogs: Random source dogs, 0 minutes before (simultaneously with) azithromycin 10 mg/kg
Procedure: as §1, §2

[3] = antiemetic 1 mg/kg oral, 30 minutes before azithromycin 10 mg/kg oral immediate release tablet

For `Cc1nccn1CC1CCc2c(c3ccccc3n2C)C1=O` (centres unmarked) [Ondansetron, reference compound], the “Emetic Dogs/Total Dogs” value [1, 3] was 5/12 and the “reduction of the incidence of emesis” value ([1]; antiemetic oral about 15 to 30 minutes prior to oral azithromycin 10 mg/kg, doses as in Table 1) was 58%.

For `CN(C)CCOC(c1ccccc1)c1ccccc1.Cn1c(=O)c2[nH]c(Cl)nc2n(C)c1=O` [Dimenhydrinate, reference compound], the “Emetic Dogs/Total Dogs” value ([1]; antiemetic 8 mg/kg oral, 30 minutes before azithromycin 10 mg/kg oral immediate release tablet) was 10/12.

In the case of `CN1CCN(CCCN2c3ccccc3Sc3ccc(Cl)cc32)CC1` [Prochlorperazine, reference compound], the “Emetic Dogs/Total Dogs” value [1, 3] is reported as 7/12.

In the case of `CCN(CC)CCNC(=O)c1cc(Cl)c(N)cc1OC` [Metoclopramide, reference compound], the “Emetic Dogs/Total Dogs” value ([1]; antiemetic 0.5 mg/kg oral, 15 minutes before azithromycin 10 mg/kg oral immediate release tablet) is reported as 11/12.

In the case of `COc1ccc(OC(F)(F)F)cc1CN[C@H]1CCCN[C@H]1c1ccccc1` [CP122,721, (2S,3S)-3-(2-methoxy-5-trifluoromethoxybenzyl)amino-2-phenylpiperidine], the “effect on vomiting in ferrets (in words)” value (emesis in ferrets) is given as “reduces vomiting”, the “Emetic Dogs/Total Dogs” value ([2]; CP122,721 1.5 mg/kg) is given as 4/8 and the “Emetic Dogs/Total Dogs” value ([2]; CP122,721 3 mg/kg) is given as 0/8. The “incidence of emesis (in words)” value ([2]; random source dogs, 8 per treatment, 1.5 mg/kg simultaneously with 10 mg/kg azithromycin) was “not reduced”, the “prevention of azithromycin emesis (in words)” value ([2]; random source dogs, 8 per treatment, 3 mg/kg simultaneously with 10 mg/kg azithromycin) was “completely effective” and the “effective in preventing emesis” value ([1]; 5 mg/kg oral, about 15 to 30 minutes prior to oral azithromycin 10 mg/kg) was 100%. For the same compound, the “Emetic Dogs/Total Dogs” value ([1]; Sensitive dogs, 30 minutes before azithromycin 10 mg/kg) was 0/4, the “Emetic Dogs/Total Dogs” value ([1]; Sensitive dogs, CP122,721 1 mg/kg oral, 30 minutes before azithromycin 10 mg/kg) was 4/4 and the “Emetic Dogs/Total Dogs” value ([1]; Sensitive dogs, CP122,721 2.5 mg/kg oral, 0 minutes before (simultaneously with) azithromycin 10 mg/kg) was 6/6. The “Emetic Dogs/Total Dogs” value ([1]; Sensitive dogs, CP122,721 2.5 mg/kg oral, 30 minutes before azithromycin 10 mg/kg) was 0/6, the “Emetic Dogs/Total Dogs” value ([1]; Sensitive dogs, CP122,721 3 mg/kg, 0 minutes before (simultaneously with) azithromycin 10 mg/kg) was 1/6 and the “Emetic Dogs/Total Dogs” value ([1]; Sensitive dogs, CP122,721 4 mg/kg, 0 minutes before (simultaneously with) azithromycin 10 mg/kg) was 1/6. For the same compound, the “Emetic Dogs/Total Dogs” value ([1]; Sensitive dogs, CP122,721 dose cell blank (third line of first titration), 30 minutes before azithromycin 10 mg/kg) was 0/4, the “Emetic Dogs/Total Dogs” value ([1]; antiemetic 5 mg/kg oral, 30 minutes before azithromycin 10 mg/kg oral immediate release tablet) was 0/12 and the “emesis (in words)” value ([1]; sensitive pointers, 2.5 mg/kg simultaneously with azithromycin) was “all pointers were emetic”. For the same compound, the “prevention of emesis (in words)” value ([1]; sensitive pointers, 2.5 mg/kg, 30 minutes prior to azithromycin) was “effective in preventing emesis”, the “dogs vomiting in treatment group” value ([1]; sensitive pointers, 3 mg/kg simultaneously with azithromycin) was “one” and the “dogs vomiting in treatment group” value ([1]; sensitive pointers, 4 mg/kg simultaneously with azithromycin) was “one”.
